Source: patent US20180086714A1 (priority 2015, published 2018)

Experiments:
Type in all cases: cell-based
Leptosphaeria nodorum = experiment: Microtest, activity against wheat leaf spots; conditions: 405 nm 9 days after inoculation, comparative example
Phytophthora infestans = conditions: 405 nm 7 days after inoculation, comparative example
Septoria tritici = experiment: Microtest, activity against leaf blotch on wheat; conditions: 405 nm 9 days after inoculation, comparative example

CC1(C)Cc2cc[nH]c2C(c2cnc3ccccc3c2)=N1 [drawing 142]
Growth (%) at 2 ppm (Leptosphaeria nodorum): 65%

CC1(C)Cc2ccccc2C(c2cnc3ccccc3c2)=N1 [drawing 139]
Growth (%) at 31 ppm (Phytophthora infestans): 33%

CC1(C)N=C(c2cnc3ccccc3c2)c2ccccc2C1(C)C
Growth (%) at 8 ppm (Septoria tritici): 74%

CC1(C)Cc2cc[nH]c2C(c2cnc3ccccc3c2)=N1 [drawing 140]
Growth (%) at 31 ppm (Phytophthora infestans): 17%

CC1(C)N=C(c2cnc3ccccc3c2)c2[nH]ccc2C1(C)C
Growth (%) at 8 ppm (Septoria tritici): 53%

CC1(C)Cc2ccccc2C(c2cnc3ccccc3c2)=N1 [drawing 141]
Growth (%) at 2 ppm (Leptosphaeria nodorum): 83%
